{"source": "paper PMC4954967", "about": "“Identification of a diazinon-metabolizing glutathione S-transferase in the silkworm, Bombyx mori” (Scientific Reports, 2016)", "assay_in_all_cases": "spectrophotometric GST assay at […] nm, nonlinear least-squares fit", "assay_type_in_all_cases": "biochemical", "key": {"[1]": {"target": "T1, bmGSTu2 (Bombyx mori, UniProt A9XI30, N68A)", "T1 construct": "full length, 233 residues, 26,667 Da calculated; cDNA from fat body; pET-22b (EcoRI/XhoI, reverse primer without stop codon), E. coli Rosetta (DE3) pLysS", "T1 sequence (A9XI30 1-233 N68A)": "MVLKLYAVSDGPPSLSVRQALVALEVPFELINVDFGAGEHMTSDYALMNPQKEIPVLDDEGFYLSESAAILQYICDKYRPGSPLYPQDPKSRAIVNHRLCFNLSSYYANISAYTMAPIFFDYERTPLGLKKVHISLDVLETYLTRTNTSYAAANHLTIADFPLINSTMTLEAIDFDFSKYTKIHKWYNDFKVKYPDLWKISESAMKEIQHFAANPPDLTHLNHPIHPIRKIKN", "settings": "read-out: N68A; 5 mM GSH; value (SD), n = 3"}, "[2]": {"target": "T2, bmGSTu2 (Bombyx mori, UniProt A9XI30, I54A)", "T2 construct": "full length, 233 residues, 26,667 Da calculated; cDNA from fat body; pET-22b (EcoRI/XhoI, reverse primer without stop codon), E. coli Rosetta (DE3) pLysS", "T2 sequence (A9XI30 1-233 I54A)": "T1 sequence (A9XI30 1-233 N68A) with I54A, A68N", "settings": "read-out: I54A; 5 mM GSH; value (SD), n = 3"}, "[3]": {"target": "T3, bmGSTu2 (Bombyx mori, UniProt A9XI30, E66A)", "T3 construct": "full length, 233 residues, 26,667 Da calculated; cDNA from fat body; pET-22b (EcoRI/XhoI, reverse primer without stop codon), E. coli Rosetta (DE3) pLysS", "T3 sequence (A9XI30 1-233 E66A)": "T1 sequence (A9XI30 1-233 N68A) with E66A, A68N", "settings": "read-out: E66A; 5 mM GSH; value (SD), n = 3"}, "[4]": {"target": "T4, bmGSTu2 (Bombyx mori, UniProt A9XI30, S67A)", "T4 construct": "full length, 233 residues, 26,667 Da calculated; cDNA from fat body; pET-22b (EcoRI/XhoI, reverse primer without stop codon), E. coli Rosetta (DE3) pLysS", "T4 sequence (A9XI30 1-233 S67A)": "T1 sequence (A9XI30 1-233 N68A) with S67A, A68N", "settings": "read-out: S67A; 5 mM GSH; value (SD), n = 3"}, "[5]": {"target": "T5, bmGSTu2 (Bombyx mori, UniProt A9XI30)", "T5 construct": "full length, 233 residues, 26,667 Da calculated; cDNA from fat body; pET-22b (EcoRI/XhoI, reverse primer without stop codon), E. coli Rosetta (DE3) pLysS", "T5 sequence (A9XI30 1-233)": "T1 sequence (A9XI30 1-233 N68A) with A68N", "settings": "read-out: Wild-type; 5 mM GSH; value (SD), n = 3"}}, "note": "Changes are numbered by the printed parent chain."}
{"smiles": "O=[N+]([O-])c1ccc(Cl)c([N+](=O)[O-])c1", "note": "[CDNB]", "values": [{"measurement": "Km", "setting": "[1]", "value": 530, "unit": "µM"}, {"measurement": "Km", "setting": "[2]", "value": 2500, "unit": "µM"}, {"measurement": "Km", "setting": "[3]", "value": 910, "unit": "µM"}, {"measurement": "Km", "setting": "[4]", "value": 1600, "unit": "µM"}, {"measurement": "Km", "setting": "[5]", "value": 270, "unit": "µM"}]}
